In US8859580B2 (Boehringer Ingelheim International GmbH, priority 2007, dated 2014):

biological target: T1, 11β-HSD1 (Homo sapiens, UniProt P28845); assay: In vitro inhibition of 11β-HSD1, HTRF detection of cortisol generated from cortisone by human liver microsomes; assay type: biochemical; details: 11β-HSD IC50 (nM), 1 hour at 37° C., pH 6.0, NADPH 200 μM, cortisone 80 nM, inhibition relative to carbenoxolone signal
T1 construct: detecting cortisol generated from cortisterone by human liver microsomes; from tissue; host or cells: human liver microsomes
In short: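 Inhibition expressed against the carbenoxolone signal and fitted to IC50 curves. Readout: HTRF competition between microsomal cortisol and XL665-labelled cortisol for Eu-cryptate anti-cortisol antibody (typically 2 h), with emission ratio 665/615 calibrated to cortisol concentration.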

T1 sequence (P28845 whole entry): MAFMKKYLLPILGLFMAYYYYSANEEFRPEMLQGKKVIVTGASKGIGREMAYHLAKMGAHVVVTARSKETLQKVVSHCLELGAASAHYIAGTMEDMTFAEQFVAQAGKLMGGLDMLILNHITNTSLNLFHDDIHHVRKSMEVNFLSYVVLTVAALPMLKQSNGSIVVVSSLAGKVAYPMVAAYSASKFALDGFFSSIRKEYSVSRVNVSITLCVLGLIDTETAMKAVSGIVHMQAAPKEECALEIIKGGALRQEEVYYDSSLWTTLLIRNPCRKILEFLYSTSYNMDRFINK

| SMILES | IC50 [nM] |
| --- | --- |
| C[C@H]1[C@@H]2Cc3ccc(O)cc3[C@@]1(C)CCN2C(=O)c1ccc2nc[nH]c2c1 [Example 53, (3H-Benzoimidazol-5-yl)-[(2S,6S,11R)-8-hydroxy-6,11-dimethyl-1,2,5,6-tetrahydro-4H-2,6-methano-benzo[d]azocin-3-yl]-methanone] | 321 |
| COc1ccc2c(c1[N+](=O)[O-])[C@]1(C)CCN(C(=O)c3ccc4nc[nH]c4c3)[C@H](C2)[C@H]1C [Example 261, (3H-Benzoimidazol-5-yl)-[(2R,6R,11S)-8-methoxy-6,11-dimethyl-7-nitro-1,2,5,6-tetrahydro-4H-2,6-methano-benzo[d]azocin-3-yl]-methanone] | 47 |
| CC1(C)[C@H]2Cc3cc4nc(-c5cnccn5)[nH]c4cc3[C@]1(C)CCN2C(=O)c1ccc2nc[nH]c2c1 [Example 266, (3H-Benzoimidazol-5-yl)-[(6R,10S)-5,6,7,8,9,10-hexahydro-10,12,12-trimethyl-2-pyrazin-2-yl-6,10-methano-imidazo[5,4-i][3]benzazocin-7-yl]-methanone] | 42 |
| CC(=O)c1ccc2c(c1)C[C@H]1N(C(=O)c3ccc4nc[nH]c4c3)CC[C@]2(C)C1(C)C [Example 205, 1-[(2R,6S)-3-(3H-Benzoimidazole-5-carbonyl)-6,11,11-trimethyl-1,2,3,4,5,6-hexahydro-2,6-methano-benzo[d]azocin-9-ayl]-ethanone] | 38 |
| Cc1nc2c3c(ccc2o1)C[C@@H]1[C@@H](C)[C@@]3(C)CCN1C(=O)c1ccc2nc[nH]c2c1 [Example 300, (3H-Benzoimidazol-5-yl)-[(7R,11R,12S)-6,7,8,9,10,11-hexahydro-2,11,12-trimethyl-6,10-methano-oxazolo[4,5-h][3]benzazocin-8-yl]-methanone] | 115 |
| C[C@@H]1[C@H]2Cc3ccc(C(C)(C)O)cc3[C@]1(C)CCN2C(=O)c1ccc2nc[nH]c2c1 [Example 340, (3H-Benzoimidazol-5-yl)-[(2R,6R,11S)-8-(1-hydroxy-1-methyl-ethyl)-6,11-dimethyl-1,2,5,6-tetrahydro-4H-2,6-methano-benzo[d]azocin-3-yl]-methanone] | 67 |
| CC(=O)NCc1ccc(C(=O)N2CC[C@@]3(C)c4cccc(O)c4C[C@@H]2C3(C)C)cc1 [Example 132, N-{4-[(2R,6S)-10-Hydroxy-6,11,11-trimethyl-1,2,5,6-tetrahydro-4H-2,6-methano-benzo[d]azocine-3-carbonyl]-benzyl}-acetamide] | 958 |
| C[C@@H]1[C@H]2Cc3ccc(C#N)cc3[C@]1(C)CCN2C(=O)c1ccc2nc[nH]c2c1 [Example 84, (2R,6R,11S)-3-(3H-Benzoimidazole-5-carbonyl)-6,11-dimethyl-1,2,3,4,5,6-hexahydro-2,6-methano-benzo[d]azocine-8-carbonitrile] | 139 |
| CC1(C)[C@H]2Cc3c(O)cccc3[C@]1(C)CCN2C(=O)c1ccc2nc[nH]c2c1 [Example 4, (3H-Benzoimidazol-5-yl)-[(2R,6S)-10-hydroxy-6,11,11-trimethyl-1,2,5,6-tetrahydro-4H-2,6-methano-benzo[d]azocin-3-yl]-methanone] | 56 |
| CC1(C)[C@H]2Cc3c(O)cccc3[C@]1(C)CCN2C(=O)c1c[nH]c2ccc(F)cc12 [Example 193, (5-Fluoro-1H-indol-3-yl)-[(2R,6S)-10-hydroxy-6,11,11-trimethyl-1,2,5,6-tetrahydro-4H-2,6-methano-benzo[d]azocin-3-yl]-methanone] | 360 |
| CC1(C)[C@H]2Cc3ccccc3[C@]1(C)CCN2C(=O)c1ccc(S(N)(=O)=O)cc1 [Example 342, 4-[(2R,6S)-6,11,11-Trimethyl-1,2,5,6-tetrahydro-4H-2,6-methano-benzo[d]azocine-3-carbonyl]-benzenesulfonamide] | 373 |
| COc1cc2c(cc1O)CC1N(C(=O)c3ccc4nc[nH]c4c3)CCC2(C)C1(C)C (centres unmarked) [Example 71, (3H-Benzoimidazol-5-yl)-(9-hydroxy-8-methoxy-6,11,11-trimethyl-1,2,5,6-tetrahydro-4H-2,6-methano-benzo[d]azocin-3-yl)-methanone] | 47 |
| Cc1ccc2[nH]cc(C(=O)N3CC[C@@]4(C)c5cccc(O)c5C[C@@H]3C4(C)C)c2c1 [Example 248, [(2R,6S)-10-Hydroxy-6,11,11-trimethyl-1,2,5,6-tetrahydro-4H-2,6-methano-benzo[d]azocin-3-yl)-(5-methyl-1H-indol-3-yl)-methanone] | 1510 |
| CC12CCN(C(=O)c3ccc4nc[nH]c4c3)C(Cc3cccc(C#N)c31)C2(C)C (centres unmarked) [Example 316, 3-(1H-Benzoimidazole-5-carbonyl)-6,11,11-trimethyl-1,2,3,4,5,6-hexahydro-2,6-methano-benzo[d]azocine-7-carbonitrile] | 32 |
| C[C@@H]1[C@@H]2Cc3ccc(O)cc3[C@@]1(C)CCN2C(=O)c1ccc2nc[nH]c2c1 [Example 54, (3H-Benzoimidazol-5-yl)-(8-hydroxy-6,11-dimethyl-1,2,5,6-tetrahydro-4H-2,6-methano-benzo[d]azocin-3-yl)-methanone] | 529 |
| C[C@H]1[C@H]2Cc3ccc(O)cc3[C@]1(C)CCN2C(=O)c1ccco1 [Example 113, Furan-2-yl-[(2R,6R,11R)-8-hydroxy-6,11-dimethyl-1,2,5,6-tetrahydro-4H-2,6-methano-benzo[d]azocin-3-yl]-methanone] | 3630 |
| Cc1cc(C(=O)N2CC[C@@]3(C)c4cccc(O)c4C[C@@H]2C3(C)C)nn1C [Example 124, (1,5-Dimethyl-1H-pyrazol-3-yl)-[(2R,6S)-10-hydroxy-6,11,11-trimethyl-1,2,5,6-tetrahydro-4H-2,6-methano-benzo[d]azocin-3-yl]-methanone] | 658 |
| CC1(C)[C@H]2Cc3c(O)cccc3[C@]1(C)CCN2C(=O)c1ccc(C(=O)N2CCCCC2)cc1 [Example 169, [(2R,6S)-10-Hydroxy-6,11,11-trimethyl-1,2,5,6-tetrahydro-4H-2,6-methano-benzo[d]azocin-3-yl]-[4-(piperidine-1-carbonyl)-phenyl]-methanone] | 950 |
| CC(O)(c1cccc(C(=O)N2CC[C@@]3(C)c4cccc(O)c4C[C@@H]2C3(C)C)c1)C(F)(F)F (stereo partly drawn) [Example 260, [(2R,6S)-10-Hydroxy-6,11,11-trimethyl-1,2,5,6-tetrahydro-4H-2,6-methano-benzo[d]azocin-3-yl]-[3-(2,2,2-trifluoro-1-hydroxy-1-methyl-ethyl)-phenyl]-methanone] | 181 |
| CC12CCN(C(=O)c3ccc4ncsc4c3)C(Cc3ccc(O)cc31)C2 (centres unmarked) [Example 92, benzothiazol-6-yl-(8-hydroxy-6-methyl-1,2,5,6-tetrahydro-4H-2,6-methano-benzo[d]azocin-3-yl)-methanone] | 1110 |
| CC1(C)[C@H]2Cc3ccccc3[C@]1(C)CCN2C(=O)c1cccc(O)c1 [Example 319, (3-Hydroxy-phenyl)-[(2R,6S)-6,11,11-trimethyl-1,2,5,6-tetrahydro-4H-2,6-methano-benzo[d]azocin-3-yl]-methanone] | 446 |
| COC(=O)c1cc(Cl)cc(C(=O)N2CC[C@@]3(C)c4cccc(O)c4C[C@@H]2C3(C)C)c1 [Example 42, 3-Chloro-5-[(2R,6S)-10-hydroxy-6,11,11-trimethyl-1,2,5,6-tetrahydro-4H-2,6-methano-benzo[d]azocine-3-carbonyl]-benzoic acid methyl ester] | 4530 |
| CC1(C)[C@H]2Cc3c(O)cccc3[C@]1(C)CCN2C(=O)c1ccc(C(=O)N2CCCC2)cc1 [Example 133, [(2R,6S)-10-Hydroxy-6,11,11-trimethyl-1,2,5,6-tetrahydro-4H-2,6-methano-benzo[d]azocin-3-yl]-[4-(pyrrolidine-1-carbonyl)-phenyl]-methanone] | 941 |
| CC1(O)CCN(Cc2ccc(C(=O)N3CC[C@@]4(C)c5cccc(O)c5C[C@@H]3C4(C)C)cc2)CC1 [Example 185, [4-(4-Hydroxy-4-methyl-piperidin-1-ylmethyl)-phenyl]-[(2R,6S)-10-hydroxy-6,11,11-trimethyl-1,2,5,6-tetrahydro-4H-2,6 methano-benzo[d]azocin-3-yl]-methanone] | 5370 |
| CC1(C)[C@H]2Cc3cc4oc([C@@H]5CCCO5)nc4cc3[C@]1(C)CCN2C(=O)c1ccc2nc[nH]c2c1 [Example 338, (3H-Benzoimidazol-5-yl)-[(6R,10S)-5,6,7,8,9,10-hexahydro-10,12,12-trimethyl-2-[(S)-tetrahydrofuran-2-yl]-6,10-methano-oxazolo[4,5-i][3]benzazocin-7-yl]-methanone] | 63 |
| CC1(C)[C@H]2Cc3ccccc3[C@]1(C)CCN2C(=O)c1ccc2c(c1)C(=O)CC2 [Example 288, 6-[(2R,6S)-6,11,11-Trimethyl-1,2,5,6-tetrahydro-4H-2,6-methano-benzo[d]azocine-3-carbonyl)-indan-1-one] | 901 |
| CC1(C)[C@H]2Cc3c(O)cccc3[C@]1(C)CCN2C(=O)c1ccc(C(=O)Nc2ccccc2)cc1 [Example 135, 4-[(2R,6S)-10-Hydroxy-6,11,11-trimethyl-1,2,5,6-tetrahydro-4H-2,6-methano-benzo[d]azocine-3-carbonyl]-N-phenyl-benzamide] | 3520 |
| COC(=O)C12CCN(C(=O)c3ccc4nc[nH]c4c3)C(Cc3ccc(O)cc31)C2 (centres unmarked) [Example 212, 3-(3H-Benzoimidazole-5-carbonyl)-8-hydroxy-2,3,4,5-tetrahydro-1H-2,6-methano-benzo[d]azocine-6-carboxylic acid methyl ester] | 1940 |

same assay, conditions: 1 hour at 37° C., pH 6.0, NADPH 200 μM, cortisone 80 nM, inhibition relative to carbenoxolone signal, read-out: 11β-HSD IC50

| SMILES | IC50 [nM] |
| --- | --- |
| COc1ccc2c(c1)C1CCN(C(=O)c3ccc4nc[nH]c4c3)C1C2 (centres unmarked) [Example 321, (3H-Benzoimidazol-5-yl)-(5-methoxy-3,3a,8,8a-tetrahydro-2H-1-aza-cyclopenta[a]inden-1-yl)-methanone] | 1170 |
